Measured values taken from article PMC9067983, “Identification of highly selective type II kinase inhibitors with chiral peptidomimetic tails” (Journal of Enzyme Inhibition and Medicinal Chemistry, 2022).
Where a SMILES comes first, the peptide text is derived from it. [ ]: non-standard residue; d: D form. The star is where a group is joined. X1 = Cc1ccc(Nc2ncc3c(n2)N(C)C(=O)N(c2cc(C(=O)*)ccc2C)C3)cn1; Aib = CC(C)(N)C(=O)O

Assays:
Lck [1] = molecular target: T1, Lck (Homo sapiens, UniProt P06239); assay: In vitro kinase assay (IC50); type: biochemical
T1 construct: purchased Reaction Biology Corp
Description: (§1) Full panel kinase profiling and kinase IC50 measurement were performed by using Reaction Biology Corp. (San Diego, USA).

p38a = molecular target: T2, p38a (Homo sapiens, UniProt Q16539); assay: In vitro kinase assay (IC50); type: biochemical
T2 construct: purchased Reaction Biology Corp
Description: as §1

c-Src = molecular target: T3, c-Src (Homo sapiens, UniProt P12931); assay: In vitro kinase assay (IC50); type: biochemical
T3 construct: purchased Reaction Biology Corp
Description: as §1

Abl1 = molecular target: T4, Abl1 (Homo sapiens, UniProt P00519); assay: In vitro kinase assay (IC50); type: biochemical
T4 construct: purchased Reaction Biology Corp
Description: as §1

Lck [2] = molecular target: T1, Lck; assay: Biochemical IC50 on Lck at Km and 1 mM ATP
Description: as §1

T1 sequence (P06239 whole entry): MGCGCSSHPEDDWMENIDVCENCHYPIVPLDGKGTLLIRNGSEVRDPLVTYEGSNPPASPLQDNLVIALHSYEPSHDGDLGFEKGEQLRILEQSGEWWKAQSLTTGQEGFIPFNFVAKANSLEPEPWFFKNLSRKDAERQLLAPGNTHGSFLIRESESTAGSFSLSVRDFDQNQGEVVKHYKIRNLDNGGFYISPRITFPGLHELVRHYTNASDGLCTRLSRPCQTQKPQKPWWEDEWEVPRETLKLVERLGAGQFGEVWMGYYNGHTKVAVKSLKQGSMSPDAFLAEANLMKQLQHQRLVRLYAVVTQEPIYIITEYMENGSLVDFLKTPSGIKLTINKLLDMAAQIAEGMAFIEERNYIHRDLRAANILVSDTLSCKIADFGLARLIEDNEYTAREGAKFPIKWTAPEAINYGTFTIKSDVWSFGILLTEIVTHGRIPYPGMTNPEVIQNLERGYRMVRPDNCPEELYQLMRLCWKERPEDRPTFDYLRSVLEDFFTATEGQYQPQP
T2 sequence (Q16539 whole entry): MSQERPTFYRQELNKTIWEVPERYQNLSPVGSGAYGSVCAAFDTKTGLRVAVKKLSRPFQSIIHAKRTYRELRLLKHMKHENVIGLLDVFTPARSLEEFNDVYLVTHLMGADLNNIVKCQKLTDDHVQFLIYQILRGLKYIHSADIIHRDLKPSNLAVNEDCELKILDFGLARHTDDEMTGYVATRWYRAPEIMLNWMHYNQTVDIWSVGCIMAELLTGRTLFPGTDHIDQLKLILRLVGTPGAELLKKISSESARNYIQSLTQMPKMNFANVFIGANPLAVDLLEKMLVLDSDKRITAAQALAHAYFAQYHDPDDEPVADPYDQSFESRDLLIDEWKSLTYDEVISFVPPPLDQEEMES
T3 sequence (P12931 whole entry): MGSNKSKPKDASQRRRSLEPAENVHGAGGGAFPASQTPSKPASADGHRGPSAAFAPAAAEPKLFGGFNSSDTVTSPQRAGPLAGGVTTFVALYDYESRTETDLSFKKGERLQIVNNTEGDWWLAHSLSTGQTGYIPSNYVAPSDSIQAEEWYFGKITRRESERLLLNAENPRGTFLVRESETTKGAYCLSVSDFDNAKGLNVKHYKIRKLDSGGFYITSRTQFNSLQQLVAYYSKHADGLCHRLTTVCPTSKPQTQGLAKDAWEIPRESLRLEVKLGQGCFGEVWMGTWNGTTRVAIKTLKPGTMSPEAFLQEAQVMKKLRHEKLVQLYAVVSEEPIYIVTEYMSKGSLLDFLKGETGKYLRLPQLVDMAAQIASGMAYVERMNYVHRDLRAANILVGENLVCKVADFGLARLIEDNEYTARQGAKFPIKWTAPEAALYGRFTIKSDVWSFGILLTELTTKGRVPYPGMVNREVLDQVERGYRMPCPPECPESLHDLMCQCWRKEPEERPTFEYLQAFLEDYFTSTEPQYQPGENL
T4 sequence (P00519 whole entry): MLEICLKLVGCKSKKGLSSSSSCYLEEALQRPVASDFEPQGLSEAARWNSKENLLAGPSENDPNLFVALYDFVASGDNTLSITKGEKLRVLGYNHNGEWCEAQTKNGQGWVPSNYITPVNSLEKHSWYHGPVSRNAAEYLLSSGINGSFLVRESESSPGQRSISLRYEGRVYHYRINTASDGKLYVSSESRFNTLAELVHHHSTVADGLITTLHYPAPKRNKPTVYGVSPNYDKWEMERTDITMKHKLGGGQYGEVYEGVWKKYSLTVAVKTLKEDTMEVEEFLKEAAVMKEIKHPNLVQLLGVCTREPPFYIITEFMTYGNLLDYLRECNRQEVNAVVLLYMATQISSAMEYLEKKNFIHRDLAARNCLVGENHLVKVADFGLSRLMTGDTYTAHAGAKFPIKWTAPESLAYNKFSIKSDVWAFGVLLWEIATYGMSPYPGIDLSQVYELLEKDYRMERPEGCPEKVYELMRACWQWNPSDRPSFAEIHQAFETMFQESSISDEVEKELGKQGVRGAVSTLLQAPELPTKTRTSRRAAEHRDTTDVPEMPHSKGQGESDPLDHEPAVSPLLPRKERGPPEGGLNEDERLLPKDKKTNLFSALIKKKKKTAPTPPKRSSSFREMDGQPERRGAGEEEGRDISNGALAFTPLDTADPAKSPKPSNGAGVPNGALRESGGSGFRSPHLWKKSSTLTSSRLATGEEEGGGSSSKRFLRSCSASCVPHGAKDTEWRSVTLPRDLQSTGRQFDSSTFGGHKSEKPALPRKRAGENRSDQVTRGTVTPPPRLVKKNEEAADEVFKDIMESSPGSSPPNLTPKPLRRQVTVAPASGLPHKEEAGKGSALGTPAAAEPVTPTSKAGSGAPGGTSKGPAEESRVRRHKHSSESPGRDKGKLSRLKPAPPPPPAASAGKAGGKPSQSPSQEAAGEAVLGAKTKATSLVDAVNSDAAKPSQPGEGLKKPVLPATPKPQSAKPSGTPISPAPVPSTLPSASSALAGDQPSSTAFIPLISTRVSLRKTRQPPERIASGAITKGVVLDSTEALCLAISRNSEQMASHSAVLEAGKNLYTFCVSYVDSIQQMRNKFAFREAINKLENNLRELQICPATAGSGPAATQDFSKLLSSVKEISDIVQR

Compound	IC50 (Lck [1]) [nM]	IC50 (p38a) [nM]	IC50 (c-Src) [nM]	IC50 (Abl1) [nM]	IC50 (Lck [2]; ATP conc. 14 µM (Km)) [nM]	IC50 (Lck [2]; ATP conc. 1 mM) [nM]	mode of inhibition (Lck [2]; IC50 at Km vs 1 mM ATP)	selectivity for Lck over c-Src (Lck [1])
Cc1ccc(Nc2ncc3c(n2)N(C)C(=O)N(c2cc(NC(=O)c4ccc5c(c4)NC(=O)[C@H](C)N=C5c4ccccc4)ccc2C)C3)cn1 [11c, (S)-3-methyl-N-(4-methyl-3-(1-methyl-7-((6-methylpyridin-3-yl)amino)-2-oxo-1,4-dihydropyrimido[4,5-d]pyrimidin-3(2H)-yl)phenyl)-2-oxo-5-phenyl-2,3-dihydro-1H-benzo[e][1,4]diazepine-8-carboxamide]	1.17	14.9	2.84	4.64	–	–	–	–
CC[C@@H](C)[C@H]1N=C(c2ccccc2)c2ccc(C(=O)Nc3ccc(C)c(N4Cc5cnc(Nc6ccc(C)nc6)nc5N(C)C4=O)c3)cc2NC1=O [11e, (R)-3-((R)-s-butyl)-N-(4-methyl-3-(1-methyl-7-((6-methylpyridin-3-yl)amino)-2-oxo-1,4-dihydropyrimido[4,5-d]pyrimidin-3(2H)-yl)phenyl)-2-oxo-5-phenyl-2,3-dihydro-1H-benzo[e][1,4]diazepine-8-carboxamide]	10.7	250	12.8	55.2	–	–	–	–
Cc1ccc(Nc2ncc3c(n2)N(C)C(=O)N(c2cc(NC(=O)c4ccc5c(c4)NC(=O)[C@H](Cc4ccccc4)N=C5c4ccccc4)ccc2C)C3)cn1 [11a, (S)-3-benzyl-N-(4-methyl-3-(1-methyl-7-((6-methylpyridin-3-yl)amino)-2-oxo-1,4-dihydropyrimido[4,5-d]pyrimidin-3(2H)-yl)phenyl)-2-oxo-5-phenyl-2,3-dihydro-1H-benzo[e][1,4]diazepine-8-carboxamide]	8.5	1830	20.4	189	–	–	–	–
Cc1ccc(Nc2ncc3c(n2)N(C)C(=O)N(c2cc(NC(=O)c4ccc5c(c4)N(Cc4ccccc4)C(=O)[C@H](CC(C)C)N=C5c4ccccc4)ccc2C)C3)cn1 [11b, (S)-1-benzyl-3-isobutyl-N-(4-methyl-3-(1-methyl-7-((6-methylpyridin-3-yl)amino)-2-oxo-1,4-dihydropyrimido[4,5-d]pyrimidin-3(2H)-yl)phenyl)-2-oxo-5-phenyl-2,3-dihydro-1H-benzo[e][1,4]diazepine-8-carboxamide]	37.3	3430	410	453	510	> 100000	ATP competitive kinase inhibitors	over 10 fold

Further compounds by falling IC50 (Lck [1]), results first:

IC50 (Lck [1]) [nM]	IC50 (p38a) [nM]	IC50 (c-Src) [nM]	IC50 (Abl1) [nM]	Compound	IC50 (Lck [2]; ATP conc. 14 µM (Km)) [nM]	IC50 (Lck [2]; ATP conc. 1 mM) [nM]	mode of inhibition (Lck [2]; IC50 at Km vs 1 mM ATP)	selectivity for Lck over c-Src (Lck [1])
174	2050	379	317	Cc1ccc(Nc2ncc3c(n2)N(C)C(=O)N(c2cc(C(=O)N[C@H](C(=O)N4CCC[C@@H]4C(=O)NC(C)(C)C(=O)N[C@@H](CC(C)C)C(=O)N(C)C)C(C)C)ccc2C)C3)cn1 [7b, (R)-N-(1-(((S)-1-(dimethylamino)-4-methyl-1-oxopentan-2-yl)amino)-2-methyl-1-oxopropan-2-yl)-1-((4-methyl-3-(1-methyl-7-((6-methylpyridin-3-yl)amino)-2-oxo-1,4-dihydropyrimido[4,5-d]pyrimidin-3(2H)-yl)benzoyl)-L-valyl)pyrrolidine-2-carboxamide] (X1-V[dP][Aib]L-NMe2)	–	–	–	–
3.42	101	15.2	24.1	Cc1ccc(Nc2ncc3c(n2)N(C)C(=O)N(c2cc(NC(=O)c4ccc5c(c4)N(Cc4ccccc4)C(=O)[C@H](C)N=C5c4ccccc4)ccc2C)C3)cn1 [11d, (S)-1-benzyl-3-methyl-N-(4-methyl-3-(1-methyl-7-((6-methylpyridin-3-yl)amino)-2-oxo-1,4-dihydropyrimido[4,5-d]pyrimidin-3(2H)-yl)phenyl)-2-oxo-5-phenyl-2,3-dihydro-1H-benzo[e][1,4]diazepine-8-carboxamide]	–	–	–	–
